{"source": "patent US20220372014A1", "about": "“NEUROPROTECTIVE COMPOUNDS AND METHODS OF USE THEREOF” (The Johns Hopkins University, priority 2019, published 2022)", "key": {"SH-SY5Y cells": {"system": "SH-SY5Y cells", "assay": "MNNG-induced parthanatic cell death in SH-SY5Y cells (Alamar blue cell viability)", "type": "cell-based", "details": "for inhibition of MNNG-induced parthanatic cell death: 50 μM MNNG for 15 min, viability after 24 h; for IC50: Homo sapiens, SH-SY5Y, read-out: IC50, MNNG-induced parthanatic cell death", "excerpt": "We developed an assay to screen for PAAN/MIF nuclease inhibitors. Single-stranded PAAN/MIF nuclease DNA substrate (FIG. 10A) was amine modified on the 5′ end and immobilized on a plate. Hybridization with a biotin-labeled complementary oligonucleotide followed by addition of streptavidin conjugated horseradish peroxidase enzyme (HRP) leads to retention of HRP on the surface within each well in the presence of intact PAAN/MIF nuclease DNA substrate, which can be quantitatively detected through colorimetric change at 450 nm using the HRP substrate 3,3′,5,5′-tetramethylbenzidine (TMB). In the presence of WT PAAN/MIF, there is reduced signal, indicative of cleavage of the PAAN/MIF nuclease substrate, while the signal is not attenuated without recombinant PAAN/MIF (FIGS. 1 and 10B). […] Thus, the rapafucin library containing 45,000 macrocyclic compounds in 3,000 pools of 15 compounds was screened using this assay. […] Several pools were identified that inhibit PAAN/MIF nuclease activity from the primary screen (FIG. 4A). […] Nine pools of compounds were identified that both inhibit PAAN/MIF cleavage of the substrate and protect against MNNG-induced parthanatic cell death by greater than 70% (FIG. 10D). […] Next, the 90 individual compounds in the 6 pools were synthesized and further assessed for inhibition of PAAN/MIF nuclease activity and MNNG-induced parthanatic cell death. Among them 12 compounds (compounds 16-18, 26-28, 41, 56, 66, 67, 76, and 77) were identified that block MIF nuclease activity and MNNG-induced parthanatic cell death by greater than 60% (FIG. 10F). Dose dependence (0.1 to 1.0 μM) were assessed for the 12 compounds against MNNG-induced parthanatic cell death (FIG. 11A and Table 2) and inhibition of PAAN MIF nuclease activity against the RF (FIG. 111B) and PS30 substrates (FIG. 11C).\nCell culture, transfection, primary neuronal culture and treatment. SH-SY5Y cells (ATCC) were cultured in DMEM containing 10% fetal bovine serum and penicillin/streptomycin at 37° C. under 5% C02. The cells were transfected using PolyFect reagent (Qiagen). Parthanatos was induced by the treatment of 50 μM MNNG for 15 min in SH-SY5Y cells. ABT-888 or PAAN/MIF inhibitors were pretreated with indicated concentration 1 h before MNNG treatment and cell death were assessed after 24 h. Primary cortical neurons from WT, PAAN/MIF KO, E22Q KI or P1G KI embryos were prepared as previously described See Kam et al. (2018) Science 362:eaat8407. Briefly, the cortex was dissected and cultured at embryonic day 16 in neurobasal media supplemented with B-27, 0.5 mM L-glutamine, penicillin and streptomycin (Invitrogen). Primary neurons were infected with AAV2-control, AAV2-PAAN/MIF WT, AAV2-PAAN/MIF E22Q, AAV2-PAAN/MIF E22A or AAV2-MIF P1G (ViGene Biosciences) at days in vitro (DIV) 4-5. ABT-888 or PAAN/MIF inhibitors were applied to neurons 1 h before α-syn PFF treatment. The neuron growth medium was replaced with fresh medium alone or including inhibitors every 3-4 days. α-syn PFF was added at DIV 7 and further incubated for indicated times followed by the cell death assay or biochemical experiments.\nCell death and viability assessment. Primary cultured cortical neurons were treated with 5 μg/ml of α-syn PFF for 14 days and cell death was determined by staining of all nuclei with 7 μM Hoechst 33342 and dead cell nuclei with 2 μM propidium iodide (PI) (Invitrogen). The numbers of total and dead cells were counted with the Axiovision 4.6 software (Carl Zeiss). Cell viability was determined by fluorescence at an excitation wavelength 570 nm and an emission wavelength 585 nm using Alamar Blue (Invitrogen). […]"}, "[1]": {"system": "HeLa cells or neuronal cells", "assay": "Cell death assay of Example 3 (MNNG, alamarBlue; protection against parthanatos, Table 4)", "type": "cell-based", "details": "1 μM test compound, MNNG-induced cell death, alamarBlue", "how_it_was_run": "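HeLa or neuronal cells (1×10^4/well) were pretreated 1 h at 37° C with 1 μM compound, exposed to MNNG for 15 min, washed, then re-incubated 18 h with 1 μM compound. Viability was read by alamarBlue fluorescence (ex 560/em 590 nm). Cell death was expressed relative to control wells.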"}, "PAAN/MIF": {"molecular_target": "T1, PAAN/MIF (Homo sapiens, UniProt P14174)", "T1 construct": "GST (N, cleaved yes); made in house; host or cells: Escherichia coli", "T1 sequence (P14174 1-115)": "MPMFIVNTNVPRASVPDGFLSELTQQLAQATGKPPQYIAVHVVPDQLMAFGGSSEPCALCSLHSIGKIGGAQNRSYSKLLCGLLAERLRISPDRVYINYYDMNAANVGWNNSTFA", "assay": "In vitro PAAN/MIF nuclease assay (PS30 or RF substrate, PAGE gel, noncleaved substrate DNA)", "type": "biochemical", "details": "RF and PS30 substrates", "method": "Nuclease assay. Purified PAAN/MIF protein (4 μM) was incubated with compounds (10 μM) in the nuclease buffer [10 mM Tris-C1 (pH 7.0) and 10 mM MgCl2] for 20 m on ice. Then samples were added with 1 μM of PAAN/MIF substrate (PS30 or RF) and incubated for 1 h at 37° C. The reaction was terminated with loading buffer containing 10 mM EDTA and separated on 15% TBE-urea polyacrylamide (PAGE) gel or 20% TBE PAGE gel.\nPurification of PAAN/MIF recombinant proteins. Human PAAN/MIF (NM_002415) cDNA and its variants were subcloned into pGEX-6β-1 vector (GE Healthcare) and mutants were generated using a QuikChange site-directed mutagenesis kit (Stratagene). The sequences were confirmed by automated DNA sequencing. The protein was expressed and purified from Escherichia coli by glutathione sepharose (GE Healthcare). The GST tag was subsequently proteolytically removed. GST protein was used as a negative control in the nuclease assay and PAAN/MIF proteins purified by FPLC using Superdex 200 10/300GL column (GE Healthcare, Life Sciences) were also used in the nuclease assays."}}, "note": "“Also recorded” adds a separate entry of the source.", "data": [{"smiles": "COc1ccc(CC[C@H]2OC(=O)[C@@H]3CCCCN3C(=O)C(=O)C(C)(C)COC(=O)C=CCCN(C)C(=O)[C@@H]3CCCN3C(=O)[C@H](COC(C)(C)C)N(C)C(=O)C(c3ccccc3)NC(=O)[C@H](C)N(C)C(=O)COc3cccc2c3)cc1OC", "note": "(stereo partly drawn) [compound 56]", "values": [{"measurement": "inhibition of MNNG-induced parthanatic cell death", "setting": "SH-SY5Y cells", "value": "prominently blocked"}, {"measurement": "IC50", "setting": "SH-SY5Y cells", "value": 520, "unit": "nM"}, {"measurement": "(%) inhibition of cell death", "setting": "[1]; 1 µM", "value": 81.5, "unit": "%"}, {"measurement": "inhibition of PAAN/MIF nuclease activity", "setting": "PAAN/MIF", "value": "prominently blocked; also recorded: inhibited"}]}, {"smiles": "COc1ccc(CC[C@H]2OC(=O)[C@@H]3CCCCN3C(=O)C(=O)C(C)(C)COC(=O)C=CCCN(C)C(=O)[C@H](C)NC(=O)[C@H](C(C)C)N(C)C(=O)[C@@H](Cc3ccccc3)NC(=O)[C@H](CC(C)C)N(C)C(=O)CCC(=O)Nc3cccc2c3)cc1OC", "note": "[compound 77]", "values": [{"measurement": "inhibition of MNNG-induced parthanatic cell death", "setting": "SH-SY5Y cells", "value": "prominently blocked"}, {"measurement": "(%) inhibition of cell death", "setting": "[1]", "value": 77.9, "unit": "%"}, {"measurement": "inhibition of PAAN/MIF nuclease activity", "setting": "PAAN/MIF", "value": "prominently blocked"}]}, {"smiles": "COc1ccc(CC[C@H]2OC(=O)[C@@H]3CCCCN3C(=O)C(=O)C(C)(C)COC(=O)C=CCCN(C)C(=O)[C@@H]3CCCN3C(=O)[C@H](CO)N(C)C(=O)C(c3ccccc3)NC(=O)[C@H](C)N(C)C(=O)COc3cccc2c3)cc1OC", "note": "(stereo partly drawn) [compound 97]", "values": [{"measurement": "inhibition of MNNG-induced parthanatic cell death", "setting": "SH-SY5Y cells", "value": "has no effect"}, {"measurement": "(%) inhibition of cell death", "setting": "[1]", "value": 41.4, "unit": "%"}, {"measurement": "inhibition of PAAN/MIF nuclease activity", "setting": "PAAN/MIF", "value": "has no effect"}]}, {"smiles": "COc1ccc(CC[C@H]2OC(=O)[C@@H]3CCCCN3C(=O)C(=O)C(C)(C)COC(=O)C=CCCN(C)C(=O)CNC(=O)[C@H](C(C)C)N(C)C(=O)[C@@H](Cc3ccccc3)NC(=O)[C@H](CC(C)C)N(C)C(=O)CCC(=O)Nc3cccc2c3)cc1OC", "note": "[compound 76]", "values": [{"measurement": "inhibition of MNNG-induced parthanatic cell death", "setting": "SH-SY5Y cells", "value": "prominently blocked"}, {"measurement": "(%) inhibition of cell death", "setting": "[1]", "value": 79.2, "unit": "%"}, {"measurement": "inhibition of PAAN/MIF nuclease activity", "setting": "PAAN/MIF", "value": "prominently blocked"}]}, {"smiles": "COc1ccc(CC[C@H]2OC(=O)[C@@H]3CCCCN3C(=O)C(=O)C(C)(C)COC(=O)C=CCCN(C)C(=O)[C@@H]3CCCN3C(=O)[C@H](COC(C)(C)C)N(C)C(=O)C(c3ccccc3)NC(=O)CN(C)C(=O)COc3cccc2c3)cc1OC", "note": "(stereo partly drawn) [compound 41]", "values": [{"measurement": "inhibition of MNNG-induced parthanatic cell death", "setting": "SH-SY5Y cells", "value": "prominently blocked"}, {"measurement": "(%) inhibition of cell death", "setting": "[1]; 1 µM", "value": 80.6, "unit": "%"}, {"measurement": "inhibition of PAAN/MIF nuclease activity", "setting": "PAAN/MIF", "value": "prominently blocked"}]}, {"smiles": "COc1ccc(CC[C@H]2OC(=O)[C@@H]3CCCCN3C(=O)C(=O)C(C)(C)COC(=O)C=CCCN(C)C(=O)[C@@H]3CCCN3C(=O)[C@H](COC(C)(C)C)N(C)C(=O)C(c3ccccc3)NC(=O)[C@H](C)N(C)C(=O)COc3cc(F)cc2c3)cc1OC", "note": "(mixture of isomers) [compound 121]", "values": [{"measurement": "inhibition of MNNG-induced parthanatic cell death", "setting": "SH-SY5Y cells", "value": "blocked"}, {"measurement": "IC50", "setting": "SH-SY5Y cells", "value": 280, "unit": "nM"}, {"measurement": "protection against MNNG-induced parthanatic cell death in PAAN/MIF mutant cells", "setting": "SH-SY5Y cells; PAAN/MIF KO SH-SY5Y cells expressing L61A, 60-63A or N72A, 1 μM", "value": "significantly reduced"}, {"measurement": "(%) inhibition of cell death", "setting": "[1]", "value": 90.1, "unit": "%"}, {"measurement": "inhibition of PAAN/MIF nuclease activity", "setting": "PAAN/MIF", "value": "inhibited"}]}]}
